Test: solvent given as SMILES

CCCC(C)C
Conditions | solvation free energy, 298 K [kcal/mol]
in Brc1ccccc1 | -3.41
in C1CCCCC1 | -3.86
in C1CCOC1 | -3.7
in C1COCCO1 | -3.03
in C=CCCCC | -3.84
in C=CCCCCCC | -3.73
in C=CCCCCCCCC | -3.64
in C=CCCCCCCCCCCCCCC | -3.33
in CC1COC(=O)O1 | -1.98
in CC#N | -2.5
in CC(=O)N(C)C | -2.65
in CC(=O)O | -2.72
in CC(=O)c1ccccc1 | -2.84
in CC(C)=O | -3.08
in CC(C)CC(C)(C)C | -3.72
in CC(C)CCCC(C)CCCC(C)CCCCC(C)CCCC(C)CCCC(C)C | -3.28
in CC(C)CCO | -3.23
in CC(C)O | -3.02
in CC(C)OC(C)C | -3.78
in CCBr | -3.88
in CCC#N | -2.84
in CCC(C)=O | -3.27
in CCCC#N | -3.05
in CCCC(=O)OCC | -3.46
in CCCC(C)=O | -3.34
in CCCCC | -3.93
in CCCCCC | -3.87
in CCCCCC(C)=O | -3.35
in CCCCCCC | -3.78
in CCCCCCCC | -3.71
in CCCCCCCCC | -3.67
in CCCCCCCCCC | -3.63
in CCCCCCCCCCCC | -3.52
in CCCCCCCCCCCCCCCC | -3.45
in CCCCCCCCCOC(=O)c1ccccc1C(=O)OCCCCCCCCC | -3.02
in CCCCCCCCO | -3.18
in CCCCCCOC(C)=O | -3.42
in CCCCCO | -3.3
in CCCCO | -3.12
in CCCCOC(C)=O | -3.4
in CCCCOCCCC | -3.7
in CCCO | -3.01
in CCN(CC)CC | -3.81
in CCO | -2.97
in CCOC(C)=O | -3.29
in CCOCC | -3.78
in CCOCCOCCOCC | -3.21
in CCOc1ccccc1 | -3.26
in CN1CCCC1=O | -2.55
in CN1CCCCC1=O | -2.58
in CN(C)C=O | -2.52
in CN(C)P(=O)(N(C)C)N(C)C | -2.88
in CNC=O | -2.24
in CO | -2.68
in COC(C)(C)C | -3.77
in COC(C)=O | -3.14
in COCCO | -2.53
in COc1ccccc1 | -3.2
in CS(C)=O | -1.78
in Cc1ccc(C)cc1 | -3.64
in Cc1ccccc1 | -3.65
in Cc1ccccn1 | -3.28
in ClC(Cl)(Cl)Cl | -3.85
in ClC(Cl)Cl | -3.72
in ClCCCl | -3.24
in ClCCl | -3.54
in Clc1ccccc1 | -3.62
in FC(F)(F)C(F)(F)C(F)(F)C(F)(F)C(F)(F)C(F)(F)C(F)(F)C(F)(F)F | -2.43
in FC(F)(F)C(F)(F)C(F)(F)C(F)(F)C(F)(F)C(F)(F)F | -2.53
in Fc1ccccc1 | -3.63
in ICI | -1.94
in N#Cc1ccccc1 | -2.91
in Nc1ccccc1 | -2.28
in O | 2.51
in O=C1CCCCC1 | -3.16
in O=C1CCCO1 | -2.1
in OCc1ccccc1 | -2.47
in S=C=S | -3.82
in c1ccccc1 | -3.61
in c1ccncc1 | -3.06

C=C(C)C1CC=C(C)C(OC=O)C1 (configuration not stated)
Conditions | solvation free energy, 298 K [kcal/mol]
in O | -3.82

Nc1ccccc1-c1ccccc1
Conditions | solvation free energy, 298 K [kcal/mol]
in O | -7.27

CCC=CCC=CCC=CCCCCCCCC(=O)OC
Conditions | solvation free energy, 298 K [kcal/mol]
in O | -3.47

CCCN(CC1CC1)c1c([N+](=O)[O-])cc(C(F)(F)F)cc1[N+](=O)[O-]
Conditions | solvation free energy, 298 K [kcal/mol]
in O | -2.45

COC(=O)CCl
Conditions | solvation free energy, 298 K [kcal/mol]
in O | -4

Cc1ccc(C(C)C)c(O)c1
Conditions | solvation free energy, 298 K [kcal/mol]
in CCCO | -10.2
in CCO | -10.3
in CO | -10.3
in O | -5.81

COC(C)C
Conditions | solvation free energy, 298 K [kcal/mol]
in O | -2.01

CC(C)CO
Conditions | solvation free energy, 298 K [kcal/mol]
in Brc1ccccc1 | -4.23
in C1CCCCC1 | -3.98
in CC(=O)N(C)C | -6.04
in CC(C)(C)O | -5.95
in CC(C)CC(C)(C)C | -3.55
in CC(C)CCCC(C)CCCC(C)CCCCC(C)CCCC(C)CCCC(C)C | -3.1
in CCC(C)=O | -5.43
in CCC(C)O | -5.95
in CCCCCC | -3.58
in CCCCCCC | -3.51
in CCCCCCCC | -3.33
in CCCCCCCCCCCCCCCC | -3.25
in CCCCCCCCCCO | -5.43
in CCCCCCCCO | -5.36
in CCCCCO | -5.73
in CCCCCl | -4.41
in CCCCN(C=O)CCCC | -5.76
in CCCCO | -5.74
in CCCCOC(C)=O | -4.84
in CCCOCCC | -4.78
in CCOC(=O)c1ccccc1C(=O)OCC | -4.88
in CCOP(=O)(OCC)OCC | -5.79
in CN1CCCC1=O | -6.03
in CN1CCN(C)C1=O | -5.9
in CNC(C)=O | -5.91
in CO | -6.18
in Cc1ccc(C)cc1 | -4.25
in Cc1cccc(C)c1 | -4.1
in Clc1ccccc1 | -4.26
in O | -4.52
in O=CN1CCOCC1 | -5.3
in OCCOCCO | -5.51
in [2H]O[2H] | -4.59

CN1C(C(=O)Nc2ccccn2)=C(O)c2ccccc2S1(=O)=O
Conditions | solvation free energy, 298 K [kcal/mol]
in CN(C)C=O | -21
in NC=O | -19.3
in O | -15.8

OC(F)(C(F)F)C(F)(F)F (configuration not stated)
Conditions | solvation free energy, 298 K [kcal/mol]
in CO | -6.53

CC(N)C(=O)C1OS(=O)OCC2C1C1(Cl)C(Cl)=C(Cl)C2(Cl)C1(Cl)Cl (configuration not stated)
Conditions | solvation free energy, 298 K [kcal/mol]
in CCCCCCCCO | -11.5

COC(=O)c1ccc([N+](=O)[O-])cc1
Conditions | solvation free energy, 298 K [kcal/mol]
in CN(C)C=O | -10.8
in O | -6.76

CCCCCBr
Conditions | solvation free energy, 298 K [kcal/mol]
in O | -0.1

COCCOC(=O)c1ccccc1C(=O)OCCOC
Conditions | solvation free energy, 298 K [kcal/mol]
in O | -13.5

CC(=O)CC(=O)C(C)(C)C
Conditions | solvation free energy, 298 K [kcal/mol]
in O | -5.12

CCC=O
Conditions | solvation free energy, 298 K [kcal/mol]
in C1CCOC1 | -3.82
in C=CCCCCCCCCCCCCCC | -2.47
in CC(C)CCCC(C)CCCC(C)CCCCC(C)CCCC(C)CCCC(C)C | -2.57
in CCC(C)=O | -3.85
in CCCCCCCC | -2.54
in CCCCCCCCCCCCCCCC | -2.41
in CCCCCCCCO | -4.15
in NC=O | -3.26
in O | -3.35
in [2H]O[2H] | -3.31

O=C1c2ccccc2C(=O)c2c(NCCO)cccc21
Conditions | solvation free energy, 298 K [kcal/mol]
in O | -14.2

CCC(C)(C)C(=O)OC1CC(C)C=C2C=CC(C)C(CCC3CC(O)CC(=O)O3)C21 (configuration not stated)
Conditions | solvation free energy, 298 K [kcal/mol]
in CC(=O)OC(C)C | -25
in CC(=O)OCC(C)C | -24.9
in CCC(C)O | -25.1
in CCC(C)OC(C)=O | -24.9
in CCCCCCCCO | -24.8
in CCCCCCO | -25
in CCCCCO | -25
in CCCCO | -25.1
in CCCCOC(C)=O | -25
in CCCO | -25.1
in CCCOC(C)=O | -25
in CCO | -25.1
in CCOC(C)=O | -25.1
in COC(C)=O | -25.1

NCCc1ccccc1
Conditions | solvation free energy, 298 K [kcal/mol]
in C=CCCCCCCC=C | -7.41
in O | -6.56

COC=O
Conditions | solvation free energy, 298 K [kcal/mol]
in C=CCCCCCCCCCCCCCC | -1.95
in CC(=O)N(C)C | -3.41
in CCCCCCCCCCCCCCCC | -1.94
in CCCCN(C=O)CCCC | -2.97
in CCOCCO | -3.08
in CN1CCCC1=O | -3.71
in CNC(C)=O | -3.15
in CS(C)=O | -3.28
in NC=O | -3.07
in O | -2.78
in [2H]O[2H] | -2.82

[2H]O[2H]
Conditions | solvation free energy, 298 K [kcal/mol]
in C1CCCCC1 | -0.54
in CCO | -5.24
in ClC(Cl)(Cl)Cl | -1.14
in S=C=S | -0.75

Cc1ccc(C)c(C)c1
Conditions | solvation free energy, 298 K [kcal/mol]
in O | -0.83

CCCCOC(=O)c1ccccc1C(=O)OC(CC)CCCC (configuration not stated)
Conditions | solvation free energy, 298 K [kcal/mol]
in O | -6.71

Source: the CombiSolv-Exp solvation set (Vermeire and Green 2021)
